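Exposure lasted 48 hours, with cells grown in 96-well plates and compounds tested at five concentrations. TGI is the concentration that stops growth completely.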
Legend:
Assay in all cases: DTP human tumour cell line panel, 48 h
DU-145 prostate = system: DU-145 prostate
KM12 colon = system: KM12 colon
OVCAR-3 ovarian = system: OVCAR-3 ovarian
HOP-92 NSCLC = system: HOP-92 NSCLC
PC-3 prostate = system: PC-3 prostate
SF-295 CNS = system: SF-295 CNS
MDA-MB-435 = system: MDA-MB-435
MCF7 breast = system: MCF7 breast
ACHN renal = system: ACHN renal
UACC-257 melanoma = system: UACC-257 melanoma
OVCAR-5 ovarian = system: OVCAR-5 ovarian
A498 renal = system: A498 renal
HCC-2998 colon = system: HCC-2998 colon
SK-MEL-2 melanoma = system: SK-MEL-2 melanoma
M14 melanoma = system: M14 melanoma
OVCAR-8 ovarian = system: OVCAR-8 ovarian
SW-620 colon = system: SW-620 colon
RXF 393 renal = system: RXF 393 renal
MDA-MB-231 breast = system: MDA-MB-231 breast
UO-31 renal = system: UO-31 renal
NCI-H460 lung = system: NCI-H460 lung
LOX IMVI melanoma = system: LOX IMVI melanoma
HS 578T breast = system: HS 578T breast
IGROV1 ovarian = system: IGROV1 ovarian
OVCAR-4 ovarian = system: OVCAR-4 ovarian
HCT-116 colon = system: HCT-116 colon
HCT-15 colon = system: HCT-15 colon
SNB-75 CNS = system: SNB-75 CNS
K-562 leukemia = system: K-562 leukemia
SK-MEL-28 melanoma = system: SK-MEL-28 melanoma
HT29 colon = system: HT29 colon
SF-268 CNS = system: SF-268 CNS
SNB-19 CNS = system: SNB-19 CNS
HOP-62 NSCLC = system: HOP-62 NSCLC
T-47D breast = system: T-47D breast
MALME-3M melanoma = system: MALME-3M melanoma
TK-10 renal = system: TK-10 renal
786-0 renal = system: 786-0 renal
RPMI-8226 leukemia = system: RPMI-8226 leukemia
SN12C renal = system: SN12C renal
SR leukemia = system: SR leukemia
SK-OV-3 ovarian = system: SK-OV-3 ovarian
UACC-62 melanoma = system: UACC-62 melanoma
BT-549 breast = system: BT-549 breast
CAKI-1 renal = system: CAKI-1 renal
NCI-H522 lung = system: NCI-H522 lung
MOLT-4 leukemia = system: MOLT-4 leukemia
U251 CNS = system: U251 CNS
NCI/ADR-RES ovarian = system: NCI/ADR-RES ovarian
A549 NSCLC = system: A549 NSCLC
MDA-N = system: MDA-N
EKVX NSCLC = system: EKVX NSCLC
NCI-H23 lung = system: NCI-H23 lung
NCI-H226 lung = system: NCI-H226 lung
SF-539 CNS = system: SF-539 CNS
SK-MEL-5 melanoma = system: SK-MEL-5 melanoma
COLO 205 colon = system: COLO 205 colon
CCRF-CEM leukemia = system: CCRF-CEM leukemia
HL-60(TB) leukemia = system: HL-60(TB) leukemia

CCC(=O)Nc1ncnc2ncn(C(=O)CC)c12
TGI (DU-145 prostate): > 100 µM | TGI (KM12 colon): > 100 µM | TGI (OVCAR-3 ovarian): > 100 µM | TGI (HOP-92 NSCLC): > 100 µM | TGI (PC-3 prostate): > 100 µM | TGI (SF-295 CNS): > 100 µM | TGI (MDA-MB-435): > 100 µM | TGI (MCF7 breast): > 100 µM | TGI (ACHN renal): > 100 µM | TGI (UACC-257 melanoma): > 100 µM | TGI (OVCAR-5 ovarian): > 100 µM | TGI (A498 renal): > 100 µM | TGI (HCC-2998 colon): > 100 µM | TGI (SK-MEL-2 melanoma): > 100 µM | TGI (M14 melanoma): > 100 µM | TGI (OVCAR-8 ovarian): > 100 µM | TGI (SW-620 colon): > 100 µM | TGI (RXF 393 renal): > 100 µM | TGI (MDA-MB-231 breast): > 100 µM | TGI (UO-31 renal): > 100 µM | TGI (NCI-H460 lung): > 100 µM | TGI (LOX IMVI melanoma): > 100 µM | TGI (HS 578T breast): > 100 µM | TGI (IGROV1 ovarian): > 100 µM | TGI (OVCAR-4 ovarian): > 100 µM | TGI (HCT-116 colon): > 100 µM | TGI (HCT-15 colon): > 100 µM | TGI (SNB-75 CNS): > 100 µM | TGI (K-562 leukemia): > 100 µM | TGI (SK-MEL-28 melanoma): > 100 µM | TGI (HT29 colon): > 100 µM | TGI (SF-268 CNS): > 100 µM | TGI (SNB-19 CNS): > 100 µM | TGI (HOP-62 NSCLC): > 100 µM | TGI (T-47D breast): > 100 µM | TGI (MALME-3M melanoma): > 100 µM | TGI (TK-10 renal): > 100 µM | TGI (786-0 renal): > 100 µM | TGI (RPMI-8226 leukemia): > 100 µM | TGI (SN12C renal): > 100 µM | TGI (SR leukemia): > 100 µM | TGI (SK-OV-3 ovarian): > 100 µM | TGI (UACC-62 melanoma): > 100 µM | TGI (BT-549 breast): > 100 µM | TGI (CAKI-1 renal): > 100 µM | TGI (NCI-H522 lung): > 100 µM | TGI (MOLT-4 leukemia): > 100 µM | TGI (U251 CNS): > 100 µM | TGI (NCI/ADR-RES ovarian): > 100 µM | TGI (A549 NSCLC): > 100 µM | TGI (MDA-N): > 100 µM | TGI (EKVX NSCLC): > 100 µM | TGI (NCI-H23 lung): > 100 µM

Nc1ncnc2c1cnn2COCC(O)CO (configuration not stated)
TGI (DU-145 prostate): > 100 µM | TGI (NCI-H226 lung): > 100 µM | TGI (KM12 colon): > 100 µM | TGI (OVCAR-3 ovarian): > 100 µM | TGI (HOP-92 NSCLC): > 100 µM | TGI (PC-3 prostate): > 100 µM | TGI (SF-295 CNS): > 100 µM | TGI (MDA-MB-435): > 100 µM | TGI (MCF7 breast): > 100 µM | TGI (ACHN renal): > 100 µM | TGI (UACC-257 melanoma): > 100 µM | TGI (OVCAR-5 ovarian): > 100 µM | TGI (A498 renal): > 100 µM | TGI (HCC-2998 colon): > 100 µM | TGI (SK-MEL-2 melanoma): > 100 µM | TGI (M14 melanoma): > 100 µM | TGI (OVCAR-8 ovarian): > 100 µM | TGI (SW-620 colon): > 100 µM | TGI (RXF 393 renal): > 100 µM | TGI (MDA-MB-231 breast): > 100 µM | TGI (UO-31 renal): > 100 µM | TGI (NCI-H460 lung): > 100 µM | TGI (LOX IMVI melanoma): > 100 µM | TGI (HS 578T breast): > 100 µM | TGI (IGROV1 ovarian): > 100 µM | TGI (OVCAR-4 ovarian): > 100 µM | TGI (HCT-116 colon): > 100 µM | TGI (HCT-15 colon): > 100 µM | TGI (K-562 leukemia): > 100 µM | TGI (SK-MEL-28 melanoma): > 100 µM | TGI (HT29 colon): > 100 µM | TGI (SF-268 CNS): > 100 µM | TGI (SF-539 CNS): > 100 µM | TGI (SNB-19 CNS): > 100 µM | TGI (HOP-62 NSCLC): > 100 µM | TGI (T-47D breast): > 100 µM | TGI (MALME-3M melanoma): > 100 µM | TGI (TK-10 renal): > 100 µM | TGI (786-0 renal): > 100 µM | TGI (RPMI-8226 leukemia): > 100 µM | TGI (SN12C renal): > 100 µM | TGI (SR leukemia): > 100 µM | TGI (SK-OV-3 ovarian): > 100 µM | TGI (SK-MEL-5 melanoma): > 100 µM | TGI (UACC-62 melanoma): > 100 µM | TGI (BT-549 breast): > 100 µM | TGI (CAKI-1 renal): > 100 µM | TGI (NCI-H522 lung): > 100 µM | TGI (MOLT-4 leukemia): > 100 µM | TGI (COLO 205 colon): > 100 µM | TGI (U251 CNS): > 100 µM | TGI (NCI/ADR-RES ovarian): > 100 µM | TGI (CCRF-CEM leukemia): > 100 µM | TGI (A549 NSCLC): > 100 µM | TGI (MDA-N): > 100 µM | TGI (EKVX NSCLC): > 100 µM | TGI (NCI-H23 lung): > 100 µM

COC(=O)[C@]1(Cc2ccc3ccccc3c2)CCCCCCN1C(=O)c1ccccc1
TGI (DU-145 prostate): > 68.1 µM | TGI (NCI-H226 lung): > 52.8 µM | TGI (KM12 colon): > 49 µM | TGI (OVCAR-3 ovarian): > 43.5 µM | TGI (HOP-92 NSCLC): > 52.9 µM | TGI (PC-3 prostate): > 45.7 µM | TGI (SF-295 CNS): > 44.5 µM | TGI (MDA-MB-435): > 53.1 µM | TGI (MCF7 breast): > 49.1 µM | TGI (ACHN renal): > 73.2 µM | TGI (UACC-257 melanoma): 25 µM | TGI (OVCAR-5 ovarian): > 65 µM | TGI (A498 renal): > 51.5 µM | TGI (HCC-2998 colon): > 49 µM | TGI (HL-60(TB) leukemia): > 40.4 µM | TGI (SK-MEL-2 melanoma): 25.9 µM | TGI (M14 melanoma): > 52.7 µM | TGI (OVCAR-8 ovarian): > 48.5 µM | TGI (SW-620 colon): > 60.3 µM | TGI (RXF 393 renal): > 47.5 µM | TGI (MDA-MB-231 breast): > 53.5 µM | TGI (UO-31 renal): > 39.9 µM | TGI (NCI-H460 lung): > 50.2 µM | TGI (LOX IMVI melanoma): 30.3 µM | TGI (HS 578T breast): > 56.1 µM | TGI (IGROV1 ovarian): > 58.2 µM | TGI (OVCAR-4 ovarian): 26 µM | TGI (HCT-116 colon): > 44.1 µM | TGI (HCT-15 colon): > 47.1 µM | TGI (SNB-75 CNS): 54.7 µM | TGI (K-562 leukemia): > 100 µM | TGI (SK-MEL-28 melanoma): > 52.1 µM | TGI (HT29 colon): > 45.2 µM | TGI (SF-268 CNS): > 54 µM | TGI (SF-539 CNS): > 54.1 µM | TGI (SNB-19 CNS): > 81.8 µM | TGI (HOP-62 NSCLC): > 46.5 µM | TGI (T-47D breast): > 54.3 µM | TGI (MALME-3M melanoma): > 53.2 µM | TGI (TK-10 renal): > 80.8 µM | TGI (786-0 renal): > 53.2 µM | TGI (RPMI-8226 leukemia): 17.9 µM | TGI (SN12C renal): > 51.5 µM | TGI (SR leukemia): > 100 µM | TGI (SK-OV-3 ovarian): > 89.8 µM | TGI (SK-MEL-5 melanoma): > 100 µM | TGI (UACC-62 melanoma): > 51.3 µM | TGI (BT-549 breast): > 54 µM | TGI (MOLT-4 leukemia): > 47.7 µM | TGI (COLO 205 colon): 24.5 µM | TGI (U251 CNS): > 46.1 µM | TGI (NCI/ADR-RES ovarian): > 49.7 µM | TGI (CCRF-CEM leukemia): > 53.7 µM | TGI (A549 NSCLC): > 100 µM | TGI (MDA-N): > 53.5 µM | TGI (EKVX NSCLC): > 50.9 µM | TGI (NCI-H23 lung): > 45.9 µM

From PubChem BioAssay (NCI)
